Series [1] relates to surgical pain (paw incision), paw withdrawal threshold. The experiment in a line: Mouse paw incision model, morphine potentiation.
Method: Manual testing with von Frey hairs was performed at the times indicated in the graphs. The animals were placed in individual Perspex boxes on a raised metal mesh for at least 40 min before the test. A series of graduated von Frey hairs (0.07, 0.16, 0.4, 0.6, and 1.0 g) were applied to the plantar surface of the left paw, in sequence. Each von Frey hair was applied 10 times on a one-sec-on-one-sec-off protocol, with each hair slightly bent. A paw withdrawal upon this hind-paw stimulation for a given von Frey hair registering 5 responses out of 10 trials was recorded the paw withdrawal threshold (PWT). A baseline PWT was determined each day for 3 days before surgery. […] In addition, the PWT was determined before dosing and 1, 2, and 4 hours after dosing.
In both cases, morphine was dosed at 1 mg/kg IP.
Series [2] deals with bone fracture pain, paw withdrawal threshold. Description: Mouse bone fracture model, intraperitoneal. Format: in vivo. An excerpt: Each group had n=10 mice.
Series [3] is described as follows: in vitro. As to conditions: human, cultured hepatocytes.
Series [4] deals with off-target screening panel. The experiment in a line: Off-target inhibition screening (whole panel). The following applies: 10 μM test concentration; hit = inhibition at or above the 50% level. An excerpt: (§1) In addition to the animal studies presented above in Examples 1-9, the results of in vitro testing of several of the compounds (i.e., XT-203, XT-204, and XT-206 through XT-217) are shown in Table 5 and Table 6. […]. Nine additional compounds had two or fewer off-target hits in the screening. […] These compounds spanned all of the tested N-modification classes. […]. Thus, the medicinal chemistry approach taken in this series of fluorinated compounds can yield low off-target activity and longer metabolic lifetime while preserving TLR4 antagonism. It is appreciated that further development of compounds in this class, using techniques known to those skilled in the art, may yield additional compounds with desirable pharmacologic and toxicologic characteristics.

Series [5] is described as follows: Hepatocyte elimination of parent compound, spread across species. Format: in vitro ADME. The following applies: mouse, rat, dog, monkey, human, hepatocytes; lowest to highest species value; read-out: range of hepatocyte elimination half-life values across species. The method, then: Hepatocyte Elimination: (+)-NTX, AK-17 and XT-203 were incubated with cultured hepatocytes from the species listed in FIG. 9 and Table 4, and samples of the culture supernatant were collected over time. Samples were concentrated by nitrogen drying followed by reconstitution with 40% methanol for LC/MS analysis The data points were analyzed using the WinNonLin pharmacokinetics software package, and a half-life was determined that describes the rate of parent elimination. […].
as §1

A short description of series [6]: in vitro. The following applies: rat, cultured hepatocytes.
Series [7] in a line: in vitro. As to conditions: dog, cultured hepatocytes.
The next series deals with iNOS (Homo sapiens, UniProt P35228). Description: iNOS enzyme inhibition. In kind it is biochemical.
Sequence of iNOS (P35228 whole entry): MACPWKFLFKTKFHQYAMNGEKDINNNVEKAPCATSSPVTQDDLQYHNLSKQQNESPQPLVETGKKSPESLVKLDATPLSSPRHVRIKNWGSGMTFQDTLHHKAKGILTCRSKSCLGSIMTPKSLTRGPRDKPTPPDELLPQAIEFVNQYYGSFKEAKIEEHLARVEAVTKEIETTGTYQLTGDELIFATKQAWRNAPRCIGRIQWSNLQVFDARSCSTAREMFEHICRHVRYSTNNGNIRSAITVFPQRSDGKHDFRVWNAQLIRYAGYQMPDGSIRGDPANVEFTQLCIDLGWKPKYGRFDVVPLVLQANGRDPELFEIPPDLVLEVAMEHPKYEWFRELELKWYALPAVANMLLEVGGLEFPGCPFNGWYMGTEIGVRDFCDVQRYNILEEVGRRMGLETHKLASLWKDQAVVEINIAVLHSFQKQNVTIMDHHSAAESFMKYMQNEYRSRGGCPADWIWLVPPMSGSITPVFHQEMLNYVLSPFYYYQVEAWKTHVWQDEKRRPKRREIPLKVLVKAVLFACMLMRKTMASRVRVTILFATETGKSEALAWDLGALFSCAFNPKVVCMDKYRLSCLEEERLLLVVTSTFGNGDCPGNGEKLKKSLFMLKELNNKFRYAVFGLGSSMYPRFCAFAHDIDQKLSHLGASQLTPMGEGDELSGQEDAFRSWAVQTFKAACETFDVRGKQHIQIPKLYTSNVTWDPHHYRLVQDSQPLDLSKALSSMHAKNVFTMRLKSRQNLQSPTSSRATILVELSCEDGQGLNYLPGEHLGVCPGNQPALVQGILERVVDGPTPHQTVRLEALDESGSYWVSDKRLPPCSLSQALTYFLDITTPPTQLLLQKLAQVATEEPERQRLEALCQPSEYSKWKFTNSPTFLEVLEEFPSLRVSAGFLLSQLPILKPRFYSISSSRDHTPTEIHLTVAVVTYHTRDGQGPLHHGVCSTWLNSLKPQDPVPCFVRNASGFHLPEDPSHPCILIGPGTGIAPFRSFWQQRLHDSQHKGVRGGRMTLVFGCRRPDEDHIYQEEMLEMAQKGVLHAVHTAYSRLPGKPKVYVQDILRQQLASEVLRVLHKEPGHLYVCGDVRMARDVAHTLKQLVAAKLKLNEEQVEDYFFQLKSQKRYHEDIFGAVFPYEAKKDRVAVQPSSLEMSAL
Series [8] concerns TLR4 (LPS-stimulated NO production, BV-2 mouse microglia cell line). The experiment in a line: NO assay: inhibition of LPS-induced NO production in BV-2 microglia (iNOS cellular). Format: cell-based. The following applies: Mus musculus. The source says: NO assay: Microglia are the resident cells of the innate immune system in the central nervous system, and TLR4 is primarily expressed by microglia rather than astrocytes or neurons in the CNS. Given this expression profile, the BV-2 mouse microglia cell line was used as the model system of microglia, as these cells recapitulate many of the responses of primary microglia with high fidelity. TLR4 activation induces the downstream production of the inflammatory factor NO, which contributes to the development of neuropathic pain and drug addiction. BV-2 murine microglia were grown in supplemented DMEM (including 10% FBS, 50 unit mL^−1 penicillin, 50 μg·mL^−1 streptomycin). BV-2 cells were detached from the flask by trypsin digestion when ˜80% confluence was reached. Cells were seeded at a density of 4×10^4 cells per well in 96-well plates. After overnight incubation, media was aspirated and changed to DMEM media without FBS. Cells were then treated with LPS (200 ng/ml) and different concentrations of the testing compounds. After 24 h treatment, 100 μL of supernatant media was removed after cells were treated for 24 h and added to flat black 96-well microfluor plates (Thermo Scientific, MA, USA). Subsequently, 10 μL of 2, 3-diaminonaphthalene (0.05 mg·mL^−1 in 0.62 M HCl) was added to each well and incubated for 15 min. The reaction was quenched by addition of 5 μL of 3 M NaOH and the plate was read on a Beckman Coulter DTX880 reader (Fullerton, Calif., USA) with excitation at 360 nm and emission at 430 nm.
N chain NTX: This experimentation involved an in vitro assay where mouse BV2 cells were treated with LPS, which results in the release of nitric oxide (NO). Blockade of TLR4 activity results in reduced NO production. Therefore, IC50 values were determined for test compounds that antagonize TLR4 activity. A series of test compounds were prepared, with different N-alkyl chains replacing the cyclopropyl methyl found in naltrexone. Cell viability was also measured by a standard assay, e.g., measurement of the release of cytoplasm-resident enzymes in the tissue culture supernatant or media to detect cell loss/lysis/rupture. A dose-inhibition curve was generated by testing the TLR4 antagonist compound for the ability to block LPS-stimulated iNOs induction. In FIG. 7, the inhibition levels across a range of doses are graphed, along with a regression curve. The IC50 value—50% inhibition level—is also provided, graphed against the length of the alkyl chain. Note that with longer N-alkyl chain the IC50 was reduced, although cell viability became problematic.
FIGS. 8B to 8D show the results of the inhibition of NO production from LPS-stimulated BV2 cells using the assay described above.

The next series has as its system Human hepatocytes. The experiment in a line: Hepatocyte elimination of parent compound. As to conditions: cultured hepatocytes.
A short description of series [9]: in vitro. As to conditions: monkey, cultured hepatocytes.
The target in the next series is hERG (Homo sapiens, UniProt Q12809). The experiment in a line: hERG inhibition. (In general: hERG is a cardiac potassium channel; its block is linked to QT prolongation.)
Sequence of hERG (Q12809 whole entry): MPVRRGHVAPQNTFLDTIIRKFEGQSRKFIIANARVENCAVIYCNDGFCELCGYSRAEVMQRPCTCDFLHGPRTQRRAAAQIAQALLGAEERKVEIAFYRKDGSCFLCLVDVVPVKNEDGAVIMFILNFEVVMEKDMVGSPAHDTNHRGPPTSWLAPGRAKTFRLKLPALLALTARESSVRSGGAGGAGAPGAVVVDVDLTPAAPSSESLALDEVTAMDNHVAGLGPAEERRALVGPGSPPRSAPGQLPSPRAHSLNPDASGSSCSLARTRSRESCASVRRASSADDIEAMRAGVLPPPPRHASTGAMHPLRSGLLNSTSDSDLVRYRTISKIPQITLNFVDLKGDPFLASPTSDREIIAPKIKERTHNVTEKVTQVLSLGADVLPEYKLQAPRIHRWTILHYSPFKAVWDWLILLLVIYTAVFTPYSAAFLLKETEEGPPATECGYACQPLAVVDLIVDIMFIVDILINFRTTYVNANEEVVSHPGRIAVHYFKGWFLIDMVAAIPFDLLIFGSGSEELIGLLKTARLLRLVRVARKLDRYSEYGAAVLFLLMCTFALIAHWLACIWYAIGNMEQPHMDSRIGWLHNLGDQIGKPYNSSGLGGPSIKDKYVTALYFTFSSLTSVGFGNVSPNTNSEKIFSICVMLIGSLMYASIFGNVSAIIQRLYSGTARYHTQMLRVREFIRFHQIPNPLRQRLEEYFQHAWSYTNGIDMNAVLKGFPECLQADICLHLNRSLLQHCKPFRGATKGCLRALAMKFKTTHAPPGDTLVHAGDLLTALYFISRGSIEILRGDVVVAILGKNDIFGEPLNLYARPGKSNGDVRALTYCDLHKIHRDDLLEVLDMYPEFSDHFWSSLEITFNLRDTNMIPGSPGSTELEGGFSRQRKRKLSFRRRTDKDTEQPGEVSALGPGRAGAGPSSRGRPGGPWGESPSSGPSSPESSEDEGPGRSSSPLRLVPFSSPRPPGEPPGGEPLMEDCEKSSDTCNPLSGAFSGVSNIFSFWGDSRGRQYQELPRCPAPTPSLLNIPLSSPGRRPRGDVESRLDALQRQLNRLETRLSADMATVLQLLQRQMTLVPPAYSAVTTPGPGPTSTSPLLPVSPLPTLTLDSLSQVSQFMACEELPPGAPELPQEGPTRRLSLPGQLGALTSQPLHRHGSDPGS
Series [10] is described as follows: in vitro. The following applies: mouse, hepatocytes.
The next series addresses T1, Adrenergic α2A (Homo sapiens, UniProt P08913).
T1 sequence (P08913 1-465): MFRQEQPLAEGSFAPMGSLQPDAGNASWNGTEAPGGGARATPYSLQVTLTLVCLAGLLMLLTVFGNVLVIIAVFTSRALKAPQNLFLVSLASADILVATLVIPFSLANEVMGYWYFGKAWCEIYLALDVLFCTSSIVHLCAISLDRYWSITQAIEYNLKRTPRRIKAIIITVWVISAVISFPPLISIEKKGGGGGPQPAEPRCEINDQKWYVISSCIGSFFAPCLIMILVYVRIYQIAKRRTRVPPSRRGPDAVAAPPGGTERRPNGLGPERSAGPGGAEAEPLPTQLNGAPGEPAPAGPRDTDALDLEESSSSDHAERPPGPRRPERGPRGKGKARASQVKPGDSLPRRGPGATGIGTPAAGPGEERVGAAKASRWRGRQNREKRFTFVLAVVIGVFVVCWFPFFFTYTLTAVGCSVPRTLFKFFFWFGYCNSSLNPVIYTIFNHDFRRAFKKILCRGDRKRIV
The experiment in a line: Off-target screening. As to conditions: 10 μM. In kind it is binding.
From the text: as §1

Another series deals with Adenosine A2A (Homo sapiens, UniProt P29274). Description: Off-target screening. Format: binding.
Sequence of Adenosine A2A (P29274 whole entry): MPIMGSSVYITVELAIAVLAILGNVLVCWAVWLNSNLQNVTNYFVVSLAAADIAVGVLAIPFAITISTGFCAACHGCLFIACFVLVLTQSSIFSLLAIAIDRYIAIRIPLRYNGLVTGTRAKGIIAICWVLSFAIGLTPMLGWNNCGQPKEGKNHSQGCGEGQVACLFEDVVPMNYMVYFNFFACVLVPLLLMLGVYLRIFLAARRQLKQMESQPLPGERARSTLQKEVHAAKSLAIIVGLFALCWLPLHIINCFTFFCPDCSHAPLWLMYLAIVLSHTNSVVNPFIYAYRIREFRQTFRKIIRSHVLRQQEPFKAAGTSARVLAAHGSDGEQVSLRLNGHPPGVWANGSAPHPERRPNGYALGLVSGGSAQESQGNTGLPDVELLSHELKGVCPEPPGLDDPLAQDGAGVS
From the text: as §1

Another series has as its target Cannabinoid CB1 (Homo sapiens, UniProt P21554). The experiment in a line: Off-target screening. In kind it is binding.
From the text: as §1

Series [11] concerns CCI neuropathic pain (mechanical allodynia). Description: Rat CCI model, oral and subcutaneous phases (Study R042). As to conditions: gabapentin 200 mg/kg. In kind it is in vivo. The method, then:
Rat chronic constriction injury model-Oral and subcutaneous (+)-NTX and XT-203: An efficacy study was conducted in the rat chronic constriction injury (CCI) model (Study R042). The study design comprised two phases. A five-day period of oral (PO) dosing and behavioral testing was followed by a five-day period of subcutaneous (SC) dosing, with a two-day washout period between these periods. Dosing on each day was performed three times a day (TID). Behavioral testing for mechanical allodynia was performed on the first and fifth days of dosing, at three times on those days: before the first dose of the day, 30 minutes after the first dose of the day, and 30 minutes after the second dose of the day. Thus, day 5 testing is designated as pre5.1 (before the first dose of the day), 5.1 (fifth day, after first dose) or 5.2 (fifth day, after second dose). On day 5 of the subcutaneous dosing phase, a second testing period was introduced 60 minutes after the second dose. (+)-NTX (6, 18, and 60 mg/kg) and XT-203. Mechanical allodynia was tested manually, using the Chaplan up-down testing method. The results are shown in FIGS. 10A and 10B, with the oral (PO) phase presented as the first pair of graphs. After the two-day washout, the subcutaneous (SC) phase was carried out with the results shown in the graphs at FIGS. 10C and 10D.
The CCI model was well established in this study, with allodynic response thresholds between 2 and 3 grams (presurgical baseline thresholds at 15 g, not shown). […] This is especially remarkable given the extremely rapid metabolism and pharmacokinetics of (+)-NTX (see FIG. 9). Here, the dampening of efficacy due to lack of significant amounts of parent compound is particularly evident. Thus, the appropriate dose-ranging conditions in animal models should reflect (+)-NTX serum levels during efficacy testing, to match pharmacokinetics with pharmacodynamics. […] Efficacy is only observed after the first dose on day 5. Thus, changes designed to improve compound stability do provide improved efficacy.

Setting [12] is: read-out: iNOS enzyme, Table 6, unit inferred.
Where [13] appears, read: Microglia, Table 6, unit inferred, footnote: Indicator of TL4 antagonism.
The mark [14] stands for this setting: LPS (200 ng/ml), 24 h, BV-2 cells, Table 3.

Read-outs that look alike come from different tables or passages of the source.

Sequence of Cannabinoid CB1 (P21554 whole entry): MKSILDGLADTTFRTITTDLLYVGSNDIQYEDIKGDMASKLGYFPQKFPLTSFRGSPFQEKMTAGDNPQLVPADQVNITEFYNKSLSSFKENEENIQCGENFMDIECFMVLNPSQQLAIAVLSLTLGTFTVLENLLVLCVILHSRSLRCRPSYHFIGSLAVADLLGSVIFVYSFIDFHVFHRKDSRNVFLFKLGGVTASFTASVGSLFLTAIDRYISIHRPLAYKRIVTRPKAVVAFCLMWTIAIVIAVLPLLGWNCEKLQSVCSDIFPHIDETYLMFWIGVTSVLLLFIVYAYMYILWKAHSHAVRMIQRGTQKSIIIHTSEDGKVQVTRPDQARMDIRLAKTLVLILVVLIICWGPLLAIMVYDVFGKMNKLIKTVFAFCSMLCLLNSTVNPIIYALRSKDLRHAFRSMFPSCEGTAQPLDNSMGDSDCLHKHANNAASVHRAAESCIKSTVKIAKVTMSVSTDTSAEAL

Turning to `CN1CC[C@]23c4c5ccc(O)c4O[C@H]2[C@@H](O)C=C[C@H]3[C@H]1C5` [Morphine, morphine], in series [1] (morphine 1 mg/kg IP alone), the “PWT, 2 hours after dosing” value was 0.11 ± 0.033 g and the “PWT, 4 hours after dosing” value amounted to 0.10 ± 0.014 g. The “PWT, 1 hour after dosing” value in series [1] (morphine 1 mg/kg IP alone, baseline 0.11±0.015 g) was found to be 0.20 ± 0.046 g. For the same compound, the “adverse effects during observation” value in series [1] (morphine dose groups) is recorded as “No significant adverse effects”. The “effect on PWT in mouse fracture pain model” value in [2] (IP, morphine 1, 2, 3, 5 mg/kg, XT-203 6, 10, 18, 30 mg/kg, (+)-NTX 6, 18, 30, 60 mg/kg, dose-dependent) is “increased the PWT”. Also, the “behaviour observed at 5 mg/kg” value in series [2] (mouse fracture model, 5 mg/kg IP, 1 hour after dosing, gone from two hours onward) is recorded as “some mice showing walking anti-clockwise”.
As to `COc1ccc2c3c1O[C@@H]1C(F)CCC4[C@H](C2)N(C(=O)C2CC2)CC[C@]341` (stereo partly drawn) [XT-206], the half-life in “in vitro [3]” was 120 min; in [5], 14.4 to 120 min; in the series “in vitro [6]” it was 14.4 min; in “in vitro [7]”, 80.8 min; in the series “in vitro [9]” it was 15.5 min; in the series “in vitro [10]” it was 18.3 min. In addition, the “off-target hits in the screening” value in series [4] was “no off-target hits and none”. Further, the IC50 (at iNOS; on iNOS (setting [12]); in series [8] (setting [13]); in series [8] (setting [14]); against hERG) was greater than 10 µM throughout. The “parent duration in human hepatocytes relative to XT-203” value in the series with Human hepatocytes is reported as “longer parent duration than XT-203”.
Regarding `COc1ccc2c3c1O[C@@H]1C(F)CCC4[C@H](C2)N(C(=O)c2ccccc2)CC[C@]341` (stereo partly drawn) [XT-207], the half-life in the series “in vitro [3]” is 37.4 min; in the series “in vitro [6]”, 11.6 min; in the series “in vitro [7]”, 39.8 min; in the series “in vitro [9]” it was 12.4 min; in the series “in vitro [10]”, 22.4 min. The “off-target hits in the screening” value in [4] was “no off-target hits and none”. For the same compound, the IC50 (on iNOS; on iNOS (setting [12]); in series [8] (setting [13]); in series [8] (setting [14]); against hERG) was greater than 10 µM each time.
As for `COc1ccc2c3c1O[C@@H]1C(F)CCC4[C@H](C2)N(C(=O)Cc2ccccc2)CC[C@]341` (stereo partly drawn) [XT-211], the half-life in “in vitro [3]” is 32.5 min; in “in vitro [6]”, 11.9 min; in “in vitro [7]”, 19.1 min; in the series “in vitro [9]”, 12.9 min; in the series “in vitro [10]”, 19 min. The “off-target hits in the screening” value in series [4] was “no off-target hits and none”. Besides, the IC50 (in [8] (setting [13]); in series [8] (setting [14]); against hERG) was greater than 10 µM each time.
In the case of `COc1ccc2c3c1O[C@@H]1C(F)CCC4[C@H](C2)N(S(=O)(=O)C2CC2)CC[C@]341` (stereo partly drawn) [XT-212], the half-life in “in vitro [3]” is 61.2 min; in the series “in vitro [6]” it was 14.4 min; in “in vitro [7]”, 86.4 min; in “in vitro [9]” it was 21.2 min; in the series “in vitro [10]”, 19.8 min. The “off-target hits in the screening” value in series [4] was “no off-target hits and none”. Further, the IC50 (in series [8] (setting [13]); in series [8] (setting [14]); against hERG) was greater than 10 µM each time. Also, in the series with Human hepatocytes, the “parent duration in human hepatocytes relative to XT-203” value is given as “longer parent duration than XT-203”.
At Adrenergic α2A, `COc1ccc2c3c1O[C@@H]1C(F)CCC4[C@H](C2)N(C2CC2)CC[C@]341` (stereo partly drawn) [XT-214] showed an inhibition at 10 µM of 51%. For the same compound, the half-life was 52.9 min in “in vitro [3]”; 11.8 min in “in vitro [6]”; 37.7 min in “in vitro [7]”; 14.1 min in the series “in vitro [9]”; 18.7 min in the series “in vitro [10]”. Besides, the “off-target hits in the screening” value in [4] is listed as “one off-target hit”. The IC50 (in series [8] (setting [13]); in series [8] (setting [14]); on hERG) was greater than 10 µM each time.
Take `COc1ccc2c3c1O[C@@H]1C(F)CCC4[C@H](C2)N(S(=O)(=O)Cc2ccccc2)CC[C@]341` (stereo partly drawn) [XT-217]: the figures for the inhibition at 10 µM against Adenosine A2A and against Cannabinoid CB1 were 61% and 56%, respectively. Also, the half-life is 14.1 min in the series “in vitro [3]”; 9.2 to 14.1 min in series [5]; 10.2 min in the series “in vitro [6]”; 9.7 min in “in vitro [7]”; 9.2 min in “in vitro [9]”; 12.6 min in “in vitro [10]”. Further, in series [4], the “off-target hits in the screening” value was “two off-target hits”. Further, the IC50 (in series [8] (setting [13]); in series [8] (setting [14]); at hERG) was greater than 10 µM in each case.
As for `NCC1(CC(=O)O)CCCCC1` [gabapentin, reference compound], the “reversal of mechanical allodynia, positive control” value in series [11] is recorded as “reversals of allodynia”.

As usually defined, the half-life is the time in which the quantity being followed falls by half. In general, inhibition refers to the percentage by which the read-out fell short of the control. High values mean a strong effect, low ones a weak effect.

The values above are taken from US11505556B2, “Halogenated derivatives of morphinans and uses thereof” (Xalud Therapeutics, Inc., priority 2017, dated 2022).
